Measurements published in patent US20260053811A1, “METHODS OF TREATING HYPERTENSION IN OBESE SUBJECTS” (Mineralys Therapeutics, Inc., priority 2022, published 2026).
Marks after values point to notes of the source that are not given here.

Tested on: hypertensive subjects
Assay: Seated automated office blood pressure (AOBP) in randomized, placebo-controlled, dose-ranging study
Assay type: in vivo, human
Set-up: Difference from placebo in change in blood pressure: unit not given here
Conditions: for Modelled (ANCOVA) LSM (SEM) change from baseline, seated AOBP SBP / LSM Δ with PRA Baseline <1 ng/mL/h, seated AOBP SBP (ANCOVA): 100 mg QD Parts 1 & 2
Method: A randomized, double-blinded, placebo-controlled, dose-ranging, multicenter study was conducted to evaluate the effect of orally administered Compound A HBr on blood pressure for the treatment of hypertension in male and female subjects ≥18 years of age.
The study consists of two parts. For enrollment into Part 1 of the study, a subject's value of plasma renin activity (PRA) must be ≤1 ng/mL/h based on morning measurement. If the value of PRA >1 ng/mL/h based on morning measurement, then subjects may be eligible to enter Part 2 of the study.
For Part 1, 163 enrolled subjects ≥18 years of age were randomized into 6 equal treatment groups (1:1:1:1:1:1) to 12.5 mg BID, 25 mg BID, 12.5 mg QD, 50 mg QD, 100 mg QD, or placebo. After a review of interim clinical data, the 2 lowest dose levels (12.5 mg QD and 12.5 mg BID) were stopped for future randomization due to a lack of consistent meaningful reduction of blood pressure, but the patients randomized to that point remained in the study through completion. Thus, after the review of interim clinical data, subjects were randomized into 4 equal treatment groups (1:1:1:1) to 25 mg BID, 50 mg QD, 100 mg QD, or placebo.
For Part 2, 36 enrolled subjects ≥18 years of age were randomized (5:1) to either 100 mg QD Compound A HBr or placebo such that the Compound A HBr treatment group consisted of approximately 30 subjects and the placebo treatment group will consist of approximately 6 subjects.
Subjects orally administered the assigned study drug (Compound A HBr or placebo) according to the assigned dosing regimen for 8 weeks beginning on Study Day 1. All subjects in Part 1 (regardless of dosing group) received BID dosing to preserve the integrity of the blind; active drug is administered as the morning dose for all QD dose groups. Subjects returned to the research facility or were seen by the clinical investigator or approved home health care professional at the end of Study Weeks 1, 2, 3, 4, 5, 6, 7, and 8 (±2 days) for protocol-defined efficacy and safety assessments and procedures, assessment of adverse events (AEs), and confirmation of compliance with study drug usage. Subjects also completed a telephone visit and blood pressure (BP) check at home approximately 3 days post last dose of study drug. Subjects attended up to 14 full clinic visits, including a pre-Screening visit, a Screening/start of Placebo Run-in visit, a second visit during Placebo Run-in, a clinic visit to initiate the ABPM procedure, a Randomization visit, 8 weekly visits during double-blind treatment, and an end-of-study visit scheduled 4 weeks after the last study treatment for final efficacy and safety assessments.
An automated oscillometric sphygmomanometer device was used to measure the subjects' systolic and diastolic blood pressure in office after approximately 5 minutes of rest in the seated position.
The primary endpoint is the change in office-measured (mean of last 2 of 5 unattended measurements using an automated oscillometric sphygmomanometer device after approximately 5 minutes of rest in the seated position) systolic blood pressure (SBP) from baseline to the end of Study Week 8.
Secondary endpoints of this study were: • (a) Change in 24-hour ambulatory blood pressure monitoring (ABPM) parameters (systolic and diastolic) from baseline to the end of Study Week 7. • (b) Change in office-measured SBP from baseline to the end of Study Weeks 1, 2, 3, 4, 5, 6, and 7. • (c) Change in office-measured diastolic blood pressure (DBP) from baseline to the end of Study Weeks 1, 2, 3, 4, 5, 6, 7, and 8. • (d) Proportion of subjects who achieve office-measured BP of ≤130/80 mm Hg by the end of Study Week 8.

[1] = 100 mg QD Part 2, Week 8, Parts 1 & 2 model, FAS
[2] = PRA Baseline >=1 ng/mL/h, Week 4, FAS
[3] = PRA Baseline >=1 ng/mL/h, Week 8, FAS

For CC(=O)N[C@H]1CC[C@H](NC(=O)CN2CCN(c3nncc(-c4ccc(C)cc4)n3)CC2)CC1 [Compound A HBr], the “LSM Δ with Placebo, change from baseline in seated AOBP SBP (MMRM)” value (100 mg QD Part 2 (vs 100 mg QD Part 1 per text), Week 8, FAS) was 0.74 mmHg, the “LSM Δ with 100 mg QD Part 1, seated AOBP DBP (MMRM)” value (100 mg QD Part 2, Week 4, FAS) was −0.43 mmHg and the “Modelled (MMRM) LSM (SEM) change from baseline, seated AOBP DBP” value (100 mg QD Part 2, Week 4, Parts 1 & 2 model, FAS) was −6.30 (1.44) mmHg. The “Modelled (MMRM) LSM (SEM) change from baseline, seated AOBP DBP” value [1] was −5.55 (1.42) mmHg, the “Modelled (MMRM) LSM (SEM) change from baseline, seated AOBP SBP” value [1] was −11.35 (2.48) mmHg and the “Modelled (ANCOVA) LSM (SEM) change from baseline, seated AOBP SBP” value (“Modelled (ANCOVA) LSM (SEM) change” for short) (PRA Baseline <1 ng/mL/h, Week 4, FAS) was −15.42 (3.12) mmHg. The “Modelled (ANCOVA) LSM (SEM) change” value (PRA Baseline <1 ng/mL/h, Week 8, FAS) was −11.27 (3.13) mmHg, the “LSM Δ with PRA Baseline <1 ng/mL/h, seated AOBP SBP (ANCOVA)” value [2] was 0.18 mmHg and the “Modelled (ANCOVA) LSM (SEM) change” value [2] was −15.24 (2.75) mmHg. For the same molecule, the “LSM Δ with PRA Baseline <1 ng/mL/h, seated AOBP SBP (ANCOVA)” value [3] was −2.07 mmHg, the “Modelled (ANCOVA) LSM (SEM) change” value [3] was −13.34 (2.52) mmHg and the “Difference from placebo in change in blood pressure” value (“Difference from placebo in change” for short) (100 mg QD, BMI 25-30) was −2.6. For the same molecule, the “Difference from placebo in change” value (100 mg QD, BMI >30) was −13.2*, the “Mean placebo-adjusted reduction in AOBP SBP” value (100 mg QD, Part 1, Week 8) was 7.81 mmHg and the “Proportion of subjects with AOBP ≤130/80 mmHg” value (100 mg QD, Part 1, Week 8) was 30%. For the same molecule, the “Proportion of subjects with AOBP ≤130/80 mmHg” value (100 mg QD, Part 2, Week 8) was 54.8%, the “Mean reduction in AOBP systolic BP, placebo-corrected, Full-analysis set” value (100 mg QD, Part-1 and Part-2 (interim) combined, N=58 active) was −9.9 mmHg and the “Difference from placebo in change” value (100 mg QD, Thiazide No) was −3.3. For the same molecule, the “Difference from placebo in change” value (100 mg QD, Thiazide Yes) was −11.4*, the “Seated AOBP DBP change from baseline (CFB), Mean (SD)” value (shortened to “Seated AOBP DBP change … (SD)”) (100 mg QD, Week 1, Part 1, FAS) was 0.98 (8.29) mmHg and the “Seated AOBP DBP, Mean (SD)” value (100 mg QD, Week 1, Part 1, FAS) was 79.70 (11.07) mmHg. The “Seated AOBP SBP change from baseline (CFB), Mean (SD)” value (shortened to “Seated AOBP SBP change … (SD)”) (100 mg QD, Week 1, Part 1, FAS) was 0.06 (12.66) mmHg, the “Seated AOBP SBP, Mean (SD)” value (100 mg QD, Week 1, Part 1, FAS) was 144.41 (14.54) mmHg and the “Seated AOBP DBP change from baseline (CFB), Mean” value (100 mg QD, Week 1, Part 2, FAS) was −5.85 mmHg. For the same molecule, the “Seated AOBP DBP, Mean” value (100 mg QD, Week 1, Part 2, FAS) was 72.19 mmHg, the “Seated AOBP SBP change from baseline (CFB), Mean” value (100 mg QD, Week 1, Part 2, FAS) was −11.35 mmHg and the “Seated AOBP SBP, Mean” value (100 mg QD, Week 1, Part 2, FAS) was 129.00 mmHg. For the same molecule, the “Seated AOBP DBP change … (SD)” value (100 mg QD, Week 2, Part 1, FAS) was −2.14 (9.60) mmHg, the “Seated AOBP DBP, Mean (SD)” value (100 mg QD, Week 2, Part 1, FAS) was 76.36 (11.90) mmHg and the “Seated AOBP SBP change … (SD)” value (100 mg QD, Week 2, Part 1, FAS) was −5.64 (16.38) mmHg. For the same molecule, the “Seated AOBP SBP, Mean (SD)” value (100 mg QD, Week 2, Part 1, FAS) was 139.04 (18.22) mmHg, the “Seated AOBP DBP change from baseline (CFB), Mean” value (100 mg QD, Week 2, Part 2, FAS) was −5.13 mmHg and the “Seated AOBP DBP, Mean” value (100 mg QD, Week 2, Part 2, FAS) was 73.10 mmHg. For the same molecule, the “Seated AOBP SBP change from baseline (CFB), Mean” value (100 mg QD, Week 2, Part 2, FAS) was −8.80 mmHg, the “Seated AOBP SBP, Mean” value (100 mg QD, Week 2, Part 2, FAS) was 131.33 mmHg and the “Seated AOBP DBP change … (SD)” value (100 mg QD, Week 3, Part 1, FAS) was −5.48 (9.36) mmHg. The “Seated AOBP DBP, Mean (SD)” value (100 mg QD, Week 3, Part 1, FAS) was 72.84 (10.83) mmHg, the “Seated AOBP SBP change … (SD)” value (100 mg QD, Week 3, Part 1, FAS) was −9.20 (11.37) mmHg and the “Seated AOBP SBP, Mean (SD)” value (100 mg QD, Week 3, Part 1, FAS) was 136.56 (14.68) mmHg. The “Seated AOBP DBP change from baseline (CFB), Mean” value (100 mg QD, Week 3, Part 2, FAS) was −4.76 mmHg, the “Seated AOBP DBP, Mean” value (100 mg QD, Week 3, Part 2, FAS) was 73.72 mmHg and the “Seated AOBP SBP change from baseline (CFB), Mean” value (100 mg QD, Week 3, Part 2, FAS) was −8.76 mmHg. The “Seated AOBP SBP, Mean” value (100 mg QD, Week 3, Part 2, FAS) was 131.52 mmHg, the “LSM Δ with Placebo, seated AOBP DBP (MMRM)” value (100 mg QD, Week 4, Part 1, FAS) was −6.42 mmHg and the “Modelled (MMRM) LSM (SEM) change from baseline, seated AOBP DBP” value (100 mg QD, Week 4, Part 1, FAS) was −6.96 (1.48) mmHg.
